In ChEMBL document CHEMBL1141332, “Cytotoxic metabolites from an Indonesian sponge Lendenfeldia sp” (J Nat Prod, 2007):

How the values were obtained:
Format in all cases: functional
HL-60 = experiment: Cytotoxicity against human HL60 cells; conditions: Homo sapiens, HL-60
MOLT-4 = experiment: Cytotoxicity against human MOLT4 cells
RPMI-8226 = experiment: Cytotoxicity against human RPMI8226 cells
SR = experiment: Cytotoxicity against human SR cells
A549 = experiment: Cytotoxicity against human A549 cells
EKVX = experiment: Cytotoxicity against human EKVX cells
HOP-62 = experiment: Cytotoxicity against human HOP62 cells
HOP-92 = experiment: Cytotoxicity against human HOP92 cells
NCI-H226 = experiment: Cytotoxicity against human NCI-H226 cells
NCI-H23 = experiment: Cytotoxicity against human NCI-H23 cells
NCI-H322M = experiment: Cytotoxicity against human NCI-H322M cells
NCI-H460 = experiment: Cytotoxicity against human NCI-H460 cells
COLO 205 = experiment: Cytotoxicity against human COLO205 cells
HCC 2998 = experiment: Cytotoxicity against human HCC2998 cells
HCT-116 = experiment: Cytotoxicity against human HCT116 cells
HCT-15 = experiment: Cytotoxicity against human HCT15 cells
KM12 = experiment: Cytotoxicity against human KM12 cells
SW-620 = experiment: Cytotoxicity against human SW620 cells
SF-268 = experiment: Cytotoxicity against human SF268 cells
SF-295 = experiment: Cytotoxicity against human SF295 cells
SF-539 = experiment: Cytotoxicity against human SF539 cells
SNB-19 = experiment: Cytotoxicity against human SNB19 cells; conditions: read-out: Log LC50 (the source's name) (converted)
SNB-75 = experiment: Cytotoxicity against human SNB75 cells
M14 = experiment: Cytotoxicity against human M14 cells
SK-MEL-2 = experiment: Cytotoxicity against human SK-MEL-2 cells
SK-MEL-28 = experiment: Cytotoxicity against human SK-MEL-28 cells
SK-MEL-5 = experiment: Cytotoxicity against human SK-MEL-5 cells
UACC-62 = experiment: Cytotoxicity against human UACC62 cells
OVCAR-3 = experiment: Cytotoxicity against human OVCAR-3 cells
OVCAR-4 = experiment: Cytotoxicity against human OVCAR4 cells
OVCAR-5 = experiment: Cytotoxicity against human OVCAR5 cells
OVCAR-8 = experiment: Cytotoxicity against human OVCAR8 cells
A498 = experiment: Cytotoxicity against human A498 cells
ACHN = experiment: Cytotoxicity against human ACHN cells
RXF 393 = experiment: Cytotoxicity against human RXF393 cells
SN12C = experiment: Cytotoxicity against human SN12C cells
TK-10 = experiment: Cytotoxicity against human TK10 cells
UO-31 = experiment: Cytotoxicity against human UO31 cells
PC-3 = experiment: Cytotoxicity against human PC3 cells
DU-145 = experiment: Cytotoxicity against human DU145 cells
MCF7 = experiment: Cytotoxicity against human MCF7 cells
NCI/ADR-RES = experiment: Cytotoxicity against human NCI/ADR-RES cells
MDA-MB-231 = experiment: Cytotoxicity against human MDA-MB-231 cells
[1] = Cytotoxicity against human HS578T cells; conditions: Hs-578T
BT-549 = experiment: Cytotoxicity against human BT549 cells
T47D = experiment: Cytotoxicity against human T47D cells
[2] = read-out: Log LC50 (the source's name) (converted)

CC1OC(=O)[C@H]2[C@H]1[C@@H](O)C[C@H]1[C@]3(C)CC[C@H]4C(C)(C)CCC[C@]4(C)[C@H]3C[C@@H](O)[C@]21C (stereo partly specified)
GI50 (HL-60): 11.7 µM
CC50 (HL-60; [2]): > 100 µM
TGI (HL-60; read-out: Log TGI (converted)): 36.3 µM
GI50 (MOLT-4): 4.79 µM
CC50 (MOLT-4; [2]): > 100 µM
TGI (MOLT-4; read-out: Log TGI (converted)): 20.9 µM
GI50 (RPMI-8226): 16.2 µM
CC50 (RPMI-8226; [2]): > 100 µM
TGI (RPMI-8226; read-out: Log TGI (converted)): 51.3 µM
GI50 (SR): 8.51 µM
CC50 (SR; [2]): > 100 µM
TGI (SR; read-out: Log TGI (converted)): 35.5 µM
GI50 (A549): 15.8 µM
CC50 (A549; [2]): 89.1 µM
TGI (A549; read-out: Log TGI (converted)): 37.2 µM
GI50 (EKVX): 23.4 µM
CC50 (EKVX; [2]): 89.1 µM
TGI (EKVX; read-out: Log TGI (converted)): 45.7 µM
GI50 (HOP-62): 15.1 µM
CC50 (HOP-62; [2]): 55 µM
TGI (HOP-62; read-out: Log TGI (converted)): 28.8 µM
GI50 (HOP-92): 17 µM
CC50 (HOP-92; [2]): 93.3 µM
TGI (HOP-92; read-out: Log TGI (converted)): 39.8 µM
GI50 (NCI-H226): 20 µM
CC50 (NCI-H226; [2]): 87.1 µM
TGI (NCI-H226; read-out: Log TGI (converted)): 41.7 µM
GI50 (NCI-H23): 20.4 µM
CC50 (NCI-H23; [2]): 67.6 µM
TGI (NCI-H23; read-out: Log TGI (converted)): 37.2 µM
GI50 (NCI-H322M): 31.6 µM
CC50 (NCI-H322M; [2]): > 100 µM
TGI (NCI-H322M; read-out: Log TGI (converted)): 93.3 µM
GI50 (NCI-H460): 20.9 µM
CC50 (NCI-H460; [2]): 89.1 µM
TGI (NCI-H460; read-out: Log TGI (converted)): 42.7 µM
GI50 (COLO 205): 15.8 µM
CC50 (COLO 205; [2]): 66.1 µM
TGI (COLO 205; read-out: Log TGI (converted)): 32.4 µM
GI50 (HCC 2998): 15.5 µM
CC50 (HCC 2998; [2]): 56.2 µM
TGI (HCC 2998; read-out: Log TGI (converted)): 29.5 µM
GI50 (HCT-116): 11.2 µM
CC50 (HCT-116; [2]): 47.9 µM
TGI (HCT-116; read-out: Log TGI (converted)): 23.4 µM
GI50 (HCT-15): 16.2 µM
CC50 (HCT-15; [2]): 60.3 µM
TGI (HCT-15; read-out: Log TGI (converted)): 31.6 µM
GI50 (KM12): 25.1 µM
CC50 (KM12; [2]): > 100 µM
TGI (KM12; read-out: Log TGI (converted)): 69.2 µM
GI50 (SW-620): 12 µM
CC50 (SW-620; [2]): 52.5 µM
TGI (SW-620; read-out: Log TGI (converted)): 25.1 µM
GI50 (SF-268): 22.4 µM
CC50 (SF-268; [2]): > 100 µM
TGI (SF-268; read-out: Log TGI (converted)): 49 µM
GI50 (SF-295): 19.5 µM
CC50 (SF-295; [2]): > 100 µM
TGI (SF-295; read-out: Log TGI (converted)): 50.1 µM
GI50 (SF-539): 19.1 µM
CC50 (SF-539; [2]): 67.6 µM
TGI (SF-539; read-out: Log TGI (converted)): 36.3 µM
CC50 (SNB-19): 17 µM
GI50 (SNB-75): 20 µM
CC50 (SNB-75; [2]): > 100 µM
TGI (SNB-75; read-out: Log TGI (converted)): 47.9 µM
GI50 (M14): 19.1 µM
CC50 (M14; [2]): 69.2 µM
TGI (M14; read-out: Log TGI (converted)): 36.3 µM
GI50 (SK-MEL-2): 25.1 µM
CC50 (SK-MEL-2; [2]): > 100 µM
TGI (SK-MEL-2; read-out: Log TGI (converted)): 51.3 µM
GI50 (SK-MEL-28): 20 µM
CC50 (SK-MEL-28; [2]): 66.1 µM
TGI (SK-MEL-28; read-out: Log TGI (converted)): 36.3 µM
GI50 (SK-MEL-5): 13.5 µM
CC50 (SK-MEL-5; [2]): 52.5 µM
TGI (SK-MEL-5; read-out: Log TGI (converted)): 26.3 µM
GI50 (UACC-62): 19.5 µM
CC50 (UACC-62; [2]): 97.7 µM
TGI (UACC-62; read-out: Log TGI (converted)): 43.7 µM
GI50 (OVCAR-3): 11.5 µM
CC50 (OVCAR-3; [2]): 60.3 µM
TGI (OVCAR-3; read-out: Log TGI (converted)): 26.3 µM
GI50 (OVCAR-4): 20.9 µM
CC50 (OVCAR-4; [2]): > 100 µM
TGI (OVCAR-4; read-out: Log TGI (converted)): 60.3 µM
GI50 (OVCAR-5): 20.9 µM
CC50 (OVCAR-5; [2]): 75.9 µM
TGI (OVCAR-5; read-out: Log TGI (converted)): 39.8 µM
GI50 (OVCAR-8): 25.1 µM
CC50 (OVCAR-8; [2]): > 100 µM
TGI (OVCAR-8; read-out: Log TGI (converted)): 63.1 µM
GI50 (A498): 18.6 µM
LC50 (A498): 72.4 µM
TGI (A498; read-out: Log TGI (converted)): 37.2 µM
GI50 (ACHN): 18.2 µM
LC50 (ACHN): 56.2 µM
TGI (ACHN; read-out: Log TGI (converted)): 31.6 µM
GI50 (RXF 393): 14.8 µM
LC50 (RXF 393): 58.9 µM
TGI (RXF 393; read-out: Log TGI (converted)): 29.5 µM
GI50 (SN12C): 17.4 µM
LC50 (SN12C): > 100 µM
TGI (SN12C; read-out: Log TGI (converted)): 46.8 µM
GI50 (TK-10): 30.2 µM
LC50 (TK-10): > 100 µM
TGI (TK-10; read-out: Log TGI (converted)): 79.4 µM
GI50 (UO-31): 20.4 µM
LC50 (UO-31): 75.9 µM
TGI (UO-31; read-out: Log TGI (converted)): 39.8 µM
GI50 (PC-3): 17 µM
LC50 (PC-3): > 100 µM
TGI (PC-3; read-out: Log TGI (converted)): 55 µM
GI50 (DU-145): 17 µM
LC50 (DU-145): 72.4 µM
TGI (DU-145; read-out: Log TGI (converted)): 34.7 µM
GI50 (MCF7): 34.7 µM
LC50 (MCF7): > 100 µM
TGI (MCF7; read-out: Log TGI (converted)): > 100 µM
GI50 (NCI/ADR-RES): 18.6 µM
LC50 (NCI/ADR-RES): 83.2 µM
TGI (NCI/ADR-RES; read-out: Log TGI (converted)): 39.8 µM
GI50 (MDA-MB-231): 19.1 µM
LC50 (MDA-MB-231): 87.1 µM
TGI (MDA-MB-231; read-out: Log TGI (converted)): 40.7 µM
GI50 [1]: 19.1 µM
LC50 [1]: > 100 µM
TGI ([1]; read-out: Log TGI (converted)): 53.7 µM
GI50 (BT-549): 17 µM
LC50 (BT-549): 64.6 µM
TGI (BT-549; read-out: Log TGI (converted)): 33.1 µM
GI50 (T47D): 24.5 µM
LC50 (T47D): > 100 µM
TGI (T47D; read-out: Log TGI (converted)): 63.1 µM
